Measured values taken from patent US20240374566A1, “METHODS AND COMPOSITIONS FOR THE TREATMENT OF CANCER” (Lankenau Institute for Medical Resesarch, priority 2017, published 2024).
Entries after “also recorded” stand apart in the source; their conditions may differ.

Experiments:
[1] = test system: allogeneic mouse concepti; settings: in vivo; cited from earlier work
[2] = test system: tumors; settings: clinical study; cited from earlier work
[3] = mouse, rat and dog; cited from earlier work
[4] = test system: lymphoma, lung cancer and sarcoma; settings: cited from earlier work
[5] = test system: human xenograft tumor; settings: mice; cited from earlier work
[6] = test system: 4T1 pulmonary metastases; test: Neovascular density (anti-Cav1 staining) within 4T1 lung metastases after treatment; type: in vivo, mouse
Description: Pulmonary metastasis studies with the 4T1 mouse mammary carcinoma-derived cell line (Aslakson et al. (1992) Cancer Res., 52:1399-1405) were carried out by injecting 1×10^4 cells in 50 μl serum free medium into the number 4 mammary fatpad to establish an orthotopic tumor which then spontaneously metastasized to the lungs. For visualization of the pulmonary metastasis burden, lungs were inflated with 15% India ink dye, washed, and bleached in Fekete's solution. For immunofluorescence detection of pulmonary metastasis vasculature, lungs were inflated with 50% OCT and frozen in OCT blocks followed by 4 μm sectioning using the CryoJane tape transfer system. Blood vessels within the metastatic nodules were visualized by fluorescence staining with rabbit anti-mouse Caveolin1 polyclonal antibody (Cat. #3238S, Cell Signaling Technology, Boston, MA). For quantitatively evaluating vessel density within the metastatic nodules, multiple fields were acquired per mouse lung on a Zeiss inverted microscope with 40× objective. The pixel density corresponding to the positive Cav1 signal per field was determined in Adobe Photoshop, and these values were then averaged to determine the overall mean value per mouse. For IDO1 inhibitor treatment studies, mice bearing established metastases at 3.5 weeks following 4T1 engraftment were administered 50 mg/kg epacadostat (ChemieTek; Indianapolis, IN) in 100 μl vehicle (3% N,N-dimethylacetamide, 10% 2-hydroxylpropyl-β-cyclodextrin) by oral gavage b.i.d. (twice daily) over 72 hours at which point the animals were euthanized for analysis. Positive control animals were administered a single intraperitoneal (i.p.) injection of 50 mg/kg cyclophosphamide (Baxter; Deefield, IL) in 100 μl sterile saline and euthanized 72 hours later for analysis. […]

[7] = test system: large, vascularized tumors; settings: requires IFNγ receptor expression on normal host cells; cited from earlier work
[8] = test system: 4T1 lung metastases; test: Hypoxyprobe staining of hypoxic regions within 4T1 lung metastases; type: in vivo, mouse; settings: epacadostat 50 mg/kg oral gavage b.i.d. over 72 hours
Description: For IDO1 inhibitor treatment studies looking at tumor hypoxia, mice bearing established metastases at 3.5 weeks following 4T1 engraftment were administered either 50 mg/kg epacadostat (ChemieTek; Indianapolis, IN) in 100 μl vehicle (3% N,N-dimethylacetamide, 10% 2-hydroxylpropyl-β-cyclodextrin) by oral gavage b.i.d. (twice daily) over 72 hours, or 400 mg/kg indoximod (Sigma-Aldrich; St. Louis, MO) in 100 μl vehicle (0.5% Tween 80/0.5% Methylcellulose v/v in water) by oral gavage b.i.d. (twice daily) over 72 hours.
For visualizing regions of hypoxia within 4T1 lung metastases, the Hypoxyprobe™ Green Kit (Hydroxyprobe, Inc.; Burlington, MA) was used as per the manufacturer's instructions. 1 hour prior to euthanasia, mice were injected intravenously with 60 mg/kg Hypoxyprobe™ (pimonidazole HCl). Lung sections were stained with the FITC-conjugated mouse IgG1 monoclonal antibody (4.3.11.3) provided by the supplier that specifically binds to protein adducts of pimonidazole.

## Cn1cc(C[C@H](N)C(=O)O)c2ccccc21 [1MT, 1-methyl-tryptophan]
[1]
  rejection of allogeneic mouse concepti: could elicit T cell-dependent rejection of allogeneic mouse concepti

## Cn1cc(C[C@@H](N)C(=O)O)c2ccccc21 [indoximod, 1-methyl-D-tryptophan]
[2]
  sensitization of tumors to salvage chemotherapy: appeared to sensitize tumors to salvage chemotherapy

## Cn1cc(-c2ccc3c(c2)CCN3C(=O)Cc2cccc(C(F)(F)F)c2)c2c(N)ncnc21 [GSK2606414]
[3]
  blood clearance: low to moderate
  oral bioavailability: good

## C=CC1=C(C)c2cc3[n-]c(cc4[n-]c(cc5nc(cc1n2)C(C)=C5C=C)c(C)c4CCC(=O)O)c(CCC(=O)O)c3C.[Zn+2] [ZnPPIX, zinc protoporphyrin IX]
[4]
  antitumor effect in mice: effective in reducing lymphoma, lung cancer and sarcoma

## Cc1cccc(CC(=O)N2CCc3c2ccc(-c2cn(C)c4ncnc(N)c24)c3F)n1 [GSK2656157]
[3]
  blood clearance: low to moderate
  oral bioavailability: good
[5]
  human xenograft tumor growth: delay of various human xenograft tumor growths
  weight loss and effect on pancreatic insulin production: without significant weight loss and/or effect on pancreatic insulin production

## O=P1(N(CCCl)CCCl)NCCCO1 (centres unmarked) [cyclophosphamide]
[6]; single i.p. injection of 50 mg/kg, evaluated 72 hours later, compared with the effect of epacadostat
  metastatic tumor neovascularization, positive control (in words): comparable
[7]
  tumor rejection: immune-dependent rejection of large, vascularized tumors

## NS(=O)(=O)NCCNc1nonc1C(=NO)Nc1ccc(F)c(Br)c1 [epacadostat]
[6]; 50 mg/kg oral gavage b.i.d. over 72 hours, established 4T1 pulmonary metastases 3.5 weeks after engraftment, P<0.01
  reduction in metastatic tumor neovascularization relative to vehicle alone: 3.2 fold
[6]; epacadostat 50 mg/kg oral gavage b.i.d. over 72 hours, established 4T1 pulmonary metastases
  metastatic tumor neovascularization relative to vehicle (in words): reduced level of neovascularization; also recorded: clear reduction in metastatic tumor neovascularization
[8]
  hypoxia in metastatic tumor (Hypoxyprobe staining) relative to vehicle: clear evidence of elevated hypoxia
